Assay results as given in patent publication US6395893B1, “Crystallization of lactitol, crystalline lactitol product and use thereof” (Xyrofin Oy, priority 2000, dated 2002).
Like-named read-outs stand apart in the source and are kept apart here.

Columns and labels:
Format in all cases: physicochemical
[1] = Water content (Karl Fischer)
Description: The water content of the microcrystalline lactitol product was analyzed by the Karl Fischer method and the melting behaviour was measured by differential scanning calorimetry (DSC).
Moisture was measured using coulometric Karl Fischer titration

[2] = Tablet hardness (Key Instruments hardness tester); details: for Hardness / Hardness (in brackets): tablet; for Hardness: 24 hours after production; for Hardness (in brackets): analysis performed during production; for Maximum hardness: tablets over the range of compression forces
Description: (§1) The material under evaluation was mixed in a laboratory scale Turbula mixer for 2 minutes with 0.5% magnesium stearate as lubricant. The mixed sample was then tabletted on a Manesty 2C single punch press using a 15 mm diameter flat-faced bevelled edge punch. The compression force was adjusted by altering the drop of the top punch. The compression force is indicated by an arbitrary figure. The higher the number, the greater the compression. These figures can only be used as a comparison for each series of compressions. As soon as the material is changed or any of the machine settings are altered the numbers cannot be compared. The adjustment is such that it cannot be exactly reproduced, therefore, these figures should only be seen as a means of differentiating between samples and indicating either increasing or decreasing compression force. Tablet hardness was measured using a Key Instruments tablet hardness tester which measures the force required to break the tablet across its diameter. Ten tablets were tested and an average reading recorded.

[3] = Tablet friability (Key Instruments friability tester); details: for Friability (10 tabs): tablet, percentage weight loss, dropped 100 times
Description: as §1, with “friability” for “hardness”, “friability tester.” for “tablet hardness tester which measures the force required to break the tablet across its diameter.”, “dropped 100 times” for “tested”, “the percentage weight loss” for “an average reading”, “recorded. Any tablets that are badly chipped are removed prior to weighing.” for “recorded.”

Flowability = assay: Flowability
Description: (§2) Flowability: A 500 g sample was poured to a 500 ml measuring cylinder. The sample was tapped 10 times, levelled and the amount of the sample was weighed.

Bulk density = details: tapped 10 times
Description: as §2

[4] = Heat of solution (calorimeter); details: 40 g in 670 g distilled water at 25° C.
Description: Heat of solution: 40 g of the sample was dissolved in 670 g of distilled water at 25° C. The heat of solution was measured with a calorimeter operating in a constant temperature environment.

[5] = Particle size distribution by sieve analysis; details: for Coefficient of variation: of particle size
Description: Particle size distribution: Sieve analysis was used to determine the particle size.

Rate of solution = details: 100 g in 100 g of water at 20° C., paddle mixer 250 rpm
Description: Rate of solution: 100 g of the sample was put in 100 g of water at 20° C. and 40° C. A small paddle mixer, 250 rpm, was used to mix the solution. During the dissolution the refractive index was measured.

[6] = Hygroscopicity (humidity cabinet)
Description: Hygroscopicity: 10 g of the sample was weighed to a petri dish. The open dish was put into a humidity cabinet. The change in weight was measured. The humidity cabins at 25° C. and relative humidity 60% and at 40° C. and relative humidity 70% were used.

[7] = Viscosity of chocolate on storage (Haake RV20 viscometer); details: chocolate made with the lactitol, held at 50° C. for one week
Description: (§3) The milk powder, microcrystalline lactitol, Litesse II (modified polydextrose), vanillin and cocoa liquor were mixed in a Stephan mixer with a portion of the cocoa butter. The mixture was passed through a three roll refiner to produce a flake. The flake was mixed again in the Stephan mixer and a farther portion of cocoa butter was added. The mix was re-refined with the pressures increased to produce a flake with an acceptable particle size.
The resulting flakes were stored ready for conching. Prior to conching the flakes were pre-warmed in an oven set to 50° C. The flake was added to a conche with the temperature set to 60° C. On loading the remaining cocoa butter was added to give a final fat content of 35 %. A small amount of the lecithin was added at this stage. The sample was conched for 24 hours. The remaining lecithin was added I hour prior to the removal of the batch from the conche.
For the sake of comparison the procedure was repeated identically with another batch except that the microcrystalline lactitol was replaced by standard crystalline lactitol monohydrate (Lactitol MC, Xyrofin Oy).
The viscosity of the two samples was measured using a Haake RV20 viscometer with an RC20 rheocontroller fitted. […]

[8] = Particle size analysis of chocolate; details: chocolate made with the lactitol
Description: as §3
There was an insignificant increase in the particle size of the chocolate made using microcrystalline lactitol (10-12 μm) compared to the one with lactitol monohydrate (9-10 μm).

[9] = compression 32.5, listed as Microcrystalline Lactitol Sample
[10] = compression 33, listed as Microcrystalline Lactitol Sample
[11] = compression 33.5, listed as Microcrystalline Lactitol Sample
[12] = compression 34, listed as Microcrystalline Lactitol Sample

With `OC[C@@H](O)[C@@H](O[C@@H]1O[C@H](CO)[C@H](O)[C@H](O)[C@H]1O)[C@H](O)[C@@H](O)CO` [microcrystalline lactitol, lactitol] the “Water content of the product” value ([1]; Karl Fischer method) was 3.5%, the Moisture ([1]; coulometric Karl Fischer titration) was 5.1% and the Hardness ([2]; compression 32 (arbitrary figure)) was 90 N. For the same molecule, the “Hardness (in brackets)” value ([2]; compression 32) was 85 N, the Hardness ([2]; compression 32.5 (arbitrary figure), listed as Microcrystalline Lactitol Sample) was 156 N and the “Hardness (in brackets)” value [2, 9] was 137 N. For the same molecule, the Hardness ([2]; compression 33 (arbitrary figure), listed as Microcrystalline Lactitol Sample) was 252 N, the “Hardness (in brackets)” value [2, 10] was 257 N and the Hardness ([2]; compression 33.5 (arbitrary figure), listed as Microcrystalline Lactitol Sample) was 319 N. The “Hardness (in brackets)” value [2, 11] was “(301) N”, the Hardness ([2]; compression 34 (arbitrary figure), listed as Microcrystalline Lactitol Sample) was 134 N and the “Hardness (in brackets)” value [2, 12] was “(335) N”. The Hardness ([2]; compression 34.5 (arbitrary figure)) was 330 N, the “Hardness (in brackets)” value ([2]; compression 34.5) was “(344) N” and the “Friability (10 tabs)” value ([3]; compression 32) was 1.31%. The “Friability (10 tabs)” value [3, 9] was 0.32%, the “Friability (10 tabs)” value [3, 10] was 0.22% and the “Friability (10 tabs)” value [3, 11] was 0.5%. For the same molecule, the “Friability (10 tabs)” value [3, 12] was 0.38%, the “Friability (10 tabs)” value ([3]; compression 34.5) was 0.69% and the Flowability (Flowability) was 17 s. It also gave a Bulk density (Bulk density) of 325 g/500 ml, a Heat of solution [4] of 15.4 cal/g and a Mean particle size [5] of 0.29 mm. For the same molecule, the “Sieve analysis 0” value [5] was 1.6, the “Sieve analysis >0.100 mm” value [5] was 13.0 and the “Sieve analysis >0.180 mm” value [5] was 21.1. The “Sieve analysis >0.250 mm” value [5] was 21.6, the “Sieve analysis >0.315 mm” value [5] was 31.5 and the “Sieve analysis >0.450 mm” value [5] was 8.3. The “Sieve analysis >0.560 mm” value [5] was 2.3, the “Sieve analysis >0.710 mm” value [5] was 0.6 and the Coefficient of variation [5] was 39. For the same molecule, the Time to dissolve (Rate of solution) was 4 min, the Water sorption ([6]; 25° C. and 60% relative humidity) was 0.05% and the Water sorption ([6]; 40° C. and 70% relative humidity) was 0.11%. For the same molecule, the “Viscosity change of chocolate on storage” value [7] was “no significant increase in viscosity” and the “Particle size of the chocolate” value [8] was 10-12 μm.

In the case of `OC[C@@H](O)[C@@H](O[C@@H]1O[C@H](CO)[C@H](O)[C@H](O)[C@H]1O)[C@H](O)[C@@H](O)CO` [lactitol monohydrate], the Maximum hardness ([2]; listed as crystalline lactitol monohydrate, monohydrate) is reported as under 70 N, the “Friability results (in words)” value ([3]; tablets, all compression forces) is reported as “all of the tablets totally disintegrating during the test” and the Flowability (Flowability; monohydrate) is reported as 23 s. For the same molecule, the Bulk density (Bulk density; monohydrate) was 360 g/500 ml, the Heat of solution ([4]; monohydrate) was 15.6 cal/g and the Mean particle size ([5]; monohydrate) was 0.47 mm. For the same molecule, the “Sieve analysis 0” value ([5]; monohydrate) was 0.0, the “Sieve analysis >0.100 mm” value ([5]; monohydrate) was 0.7 and the “Sieve analysis >0.180 mm” value ([5]; monohydrate) was 4.8. For the same molecule, the “Sieve analysis >0.250 mm” value ([5]; monohydrate) was 15.1, the “Sieve analysis >0.315 mm” value ([5]; monohydrate) was 25.8 and the “Sieve analysis >0.450 mm” value ([5]; monohydrate) was 20.6. For the same molecule, the “Sieve analysis >0.560 mm” value ([5]; monohydrate) was 17.9, the “Sieve analysis >0.710 mm” value ([5]; monohydrate) was 15.2 and the Coefficient of variation ([5]; monohydrate) was 30. The Time to dissolve (Rate of solution; listed as the monohydrate, monohydrate) was “about 5 minutes”, the Water sorption ([6]; 25° C. and 60% relative humidity, listed as the monohydrate, monohydrate) was 0.02% and the Water sorption ([6]; 40° C. and 70% relative humidity, listed as the monohydrate, monohydrate) was 0.04%. For the same molecule, the “Viscosity change of chocolate on storage” value ([7]; monohydrate) was “considerable thickening” and the “Particle size of the chocolate” value ([8]; monohydrate) was 9-10 μm.

In the case of `OC[C@@H](O)[C@@H](O[C@@H]1O[C@H](CO)[C@H](O)[C@H](O)[C@H]1O)[C@H](O)[C@@H](O)CO` [Granulated Lactitol, lactitol], the Hardness ([2]; compression 32.5 (arbitrary figure)) is reported as 70 N, the “Hardness (in brackets)” value ([2]; compression 32.5) is reported as 82 N and the Hardness ([2]; compression 33 (arbitrary figure)) is reported as 139 N. The “Hardness (in brackets)” value ([2]; compression 33) was 133 N, the Hardness ([2]; compression 33.5 (arbitrary figure)) was 193 N and the “Hardness (in brackets)” value ([2]; compression 33.5) was 213 N. The Hardness ([2]; compression 34 (arbitrary figure)) was 240 N, the “Hardness (in brackets)” value ([2]; compression 34) was 307 N and the Maximum hardness [2] was 240 N. For the same molecule, the “Friability (10 tabs)” value ([3]; compression 32.5) was 4.7%, the “Friability (10 tabs)” value ([3]; compression 33) was 1.79% and the “Friability (10 tabs)” value ([3]; compression 33.5) was 1.08%. For the same molecule, the “Friability (10 tabs)” value ([3]; compression 34) was 0.34%.
